# Experimental data from US4994473A, “Pyridyl containing insecticides” (ICI Americas Inc., priority 1988, dated 1991).
# Test system: Musca domestica
# Experiment: Housefly contact test, mortality after 48 hours
# Type: in vivo, Housefly Musca domestica
# Details: μg of the test compound per 25 female flies
# Experimental: (§1) The compounds in Table I above were tested for insecticidal activity using the following testing procedures. LC50 values, based on the results of these tests and calculated according to dosage-mortality curves, are expressed in Table II.
# The test compound was diluted in acetone and aliquots pipetted onto the bottom of aluminum dishes. To ensure even spreading of the chemical on the bottom of the dishes, 1 ml of acetone containing 0.01% peanut oil was also added to each dish. After all solvents had evaporated, the dishes were placed in circular cardboard cages containing 25 female houseflies, 1-2 days old. The cages were covered on the bottom with cellophane and on the top with tulle netting, and each contained a sugar-water saturated cotton plug for maintenance of the flies. Mortality was recorded after 48 hours. Test levels ranged from 100 μg/25 female houseflies downward. The LC-50 value is expressed below in Table II under the heading "HF", in terms of μg of the test compound per 25 female flies.
row,SMILES,LC50 HF
1,CC(C)C(=Nc1ccc2ocnc2c1)OCc1cccc(Oc2ccccc2)c1 [Compound 19],10 µg
2,CC(C)C(=Nc1ccc(Cl)nc1Cl)OCc1cccc(Oc2ccccc2)c1 [Compound 2],18 µg
3,C=C(C)C(=Nc1ccc(Cl)nc1)OCc1ccc(F)c(Oc2ccccc2)c1 [Compound 49],< 100 µg
4,Cc1ccc(N=C(OCc2cccc(Oc3ccccc3)c2)C(C)C)cn1 [Compound 10],25 µg
5,CCCCc1nc2ccc(N=C(OCc3cccc(Oc4ccccc4)c3)C(C)C)cc2o1 [Compound 26],> 100 µg
6,CC(C)C(=Nc1ccc(Br)nc1)OCc1cccc(Oc2ccccc2)c1 [Compound 11],7 µg
7,CC(C)C(=Nc1ccc(Cl)nc1)OCc1ccc(F)c(Oc2ccc(F)cc2)c1 [Compound 31],7.5 µg
8,CC(C)C(=Nc1ccc2nc(C(C)C)sc2c1)OCc1cccc(Oc2ccccc2)c1 [Compound 21],> 100 µg
9,CC(C)C(=Nc1ccc(Cl)nc1)OCc1ccc(F)c(Oc2ccc(Cl)cc2)c1 [Compound 32],22 µg
10,CC(C)C(=Nc1ccc2nc(C(C)C)oc2c1)OCc1cccc(Oc2ccccc2)c1 [Compound 27],> 100 µg
11,CCOc1ccc(N=C(OCc2cccc(Oc3ccccc3)c2)C(C)C)cn1 [Compound 41],< 100 µg
12,Cc1nc2ccc(N=C(OCc3cccc(Oc4ccccc4)c3)C(C)C)cc2o1 [Compound 25],38 µg

# Test system: Aphis fabae
# Experiment: Black bean aphid spray test on nasturtium plants, mortality after 48 hours
# Type: in vivo, Black Bean Aphid Aphis fabae (Scop.)
# Details: mixed ages, percent of test compound in sprayed solution
# Experimental: as §1
# Black Bean Aphid Aphis fabae (Scop.)
# Nasturtium plants (Tropaeolum sp.) approximately 5 cm tall, were transplanted into sandy loam soil in small cups and infested with 25-50 black bean aphids of mixed ages. Twenty-four hours later they were sprayed to the point of runoff with 50--50 acetone-water solutions of the test compound. Treated plants were held in the greenhouse and mortality was recorded after 48 hours. Test concentrations ranged from 0.05% downward. The LC-50 value is expressed below in Table II under the heading "BA" in terms of percent of the test compound in the sprayed solution.
row,SMILES,LC50 BA
1,CC(C)C(=Nc1ccc(Cl)nc1Cl)OCc1cccc(Oc2ccccc2)c1 [Compound 2],0.003%
2,C=C(C)C(=Nc1ccc(Cl)nc1)OCc1ccc(F)c(Oc2ccccc2)c1 [Compound 49],< 0.05%
3,Cc1ccc(N=C(OCc2cccc(Oc3ccccc3)c2)C(C)C)cn1 [Compound 10],0.05%
4,CCCCc1nc2ccc(N=C(OCc3cccc(Oc4ccccc4)c3)C(C)C)cc2o1 [Compound 26],0.05%
5,CC(C)C(=Nc1ccc(Br)nc1)OCc1cccc(Oc2ccccc2)c1 [Compound 11],0.01%
6,CC(C)C(=Nc1ccc2nc(C(C)C)oc2c1)OCc1cccc(Oc2ccccc2)c1 [Compound 27],> 0.05%
7,CCOc1ccc(N=C(OCc2cccc(Oc3ccccc3)c2)C(C)C)cn1 [Compound 41],> 0.05%

# Test system: Tetranychus urticae
# Experiment: Two-spotted mite acaricidal test on pinto bean plants
# Type: in vivo, two-spotted mite Tetranychus urticae (Koch)
# Details: adults, percent concentration in solution, 5-7 days
# From the text: Acaricidal Evaluation Test
# The two-spotted mite (2SM) [Tetranychus urticae (Koch)]was employed in tests for miticides. The test procedure was as follows:
# Pinto bean plants (Phaseolus sp.) approximately 10 cm tall, were transplanted into sandy loam soil in small cups and thoroughly infested with two-spotted mites of mixed ages and sexes. Twenty-four hours later the infested plants were inverted and dipped for 2-3 seconds in 50--50 acetone-water solutions of the test compound. Treated plants were held in the greenhouse, and 5-7 days later mortality was determined for both adult mites and the nymphs hatching from eggs which were on the plants at the time of treatment. Test concentrations ranged from 0.05% downward. The LC-50 value is expressed below in Table II under the headings "2SM-A" (i.e., adults) and "2SM-E" (i.e. eggs) in terms of percent concentration of the test compound in the solution.
row,SMILES,LC50 2-SM A
1,CC(C)C(=Nc1ccc2ocnc2c1)OCc1cccc(Oc2ccccc2)c1 [Compound 19],> 0.05%
2,CC(C)C(=Nc1ccc(Cl)nc1Cl)OCc1cccc(Oc2ccccc2)c1 [Compound 2],> 0.05%
3,C=C(C)C(=Nc1ccc(Cl)nc1)OCc1ccc(F)c(Oc2ccccc2)c1 [Compound 49],> 0.05%
4,Cc1ccc(N=C(OCc2cccc(Oc3ccccc3)c2)C(C)C)cn1 [Compound 10],> 0.05%
5,CCCCc1nc2ccc(N=C(OCc3cccc(Oc4ccccc4)c3)C(C)C)cc2o1 [Compound 26],> 0.05%
6,CC(C)C(=Nc1ccc(Br)nc1)OCc1cccc(Oc2ccccc2)c1 [Compound 11],> 0.05%
7,CC(C)C(=Nc1ccc(Cl)nc1)OCc1ccc(F)c(Oc2ccc(F)cc2)c1 [Compound 31],> 0.05%
8,CC(C)C(=Nc1ccc2nc(C(C)C)sc2c1)OCc1cccc(Oc2ccccc2)c1 [Compound 21],> 0.05%
9,CC(C)C(=Nc1ccc(Cl)nc1)OCc1ccc(F)c(Oc2ccc(Cl)cc2)c1 [Compound 32],> 0.05%
10,CC(C)C(=Nc1ccc2nc(C(C)C)oc2c1)OCc1cccc(Oc2ccccc2)c1 [Compound 27],> 0.05%
11,CCOc1ccc(N=C(OCc2cccc(Oc3ccccc3)c2)C(C)C)cn1 [Compound 41],> 0.05%
12,Cc1nc2ccc(N=C(OCc3cccc(Oc4ccccc4)c3)C(C)C)cc2o1 [Compound 25],> 0.05%

# Same assay, conditions: eggs, percent concentration in solution, 5-7 days
row,SMILES,LC50 2-SM E
1,CC(C)C(=Nc1ccc2ocnc2c1)OCc1cccc(Oc2ccccc2)c1 [Compound 19],> 0.05%
2,CC(C)C(=Nc1ccc(Cl)nc1Cl)OCc1cccc(Oc2ccccc2)c1 [Compound 2],> 0.05%
3,C=C(C)C(=Nc1ccc(Cl)nc1)OCc1ccc(F)c(Oc2ccccc2)c1 [Compound 49],> 0.05%
4,Cc1ccc(N=C(OCc2cccc(Oc3ccccc3)c2)C(C)C)cn1 [Compound 10],> 0.05%
5,CCCCc1nc2ccc(N=C(OCc3cccc(Oc4ccccc4)c3)C(C)C)cc2o1 [Compound 26],> 0.05%
6,CC(C)C(=Nc1ccc(Br)nc1)OCc1cccc(Oc2ccccc2)c1 [Compound 11],> 0.05%
7,CC(C)C(=Nc1ccc(Cl)nc1)OCc1ccc(F)c(Oc2ccc(F)cc2)c1 [Compound 31],> 0.05%
8,CC(C)C(=Nc1ccc2nc(C(C)C)sc2c1)OCc1cccc(Oc2ccccc2)c1 [Compound 21],> 0.05%
9,CC(C)C(=Nc1ccc(Cl)nc1)OCc1ccc(F)c(Oc2ccc(Cl)cc2)c1 [Compound 32],0.05%
10,CC(C)C(=Nc1ccc2nc(C(C)C)oc2c1)OCc1cccc(Oc2ccccc2)c1 [Compound 27],> 0.05%
11,CCOc1ccc(N=C(OCc2cccc(Oc3ccccc3)c2)C(C)C)cn1 [Compound 41],> 0.05%
12,Cc1nc2ccc(N=C(OCc3cccc(Oc4ccccc4)c3)C(C)C)cc2o1 [Compound 25],> 0.05%

# Test system: Heliothis virescens
# Experiment: Tobacco budworm egg dip test
# Type: in vivo, Tobacco Budworm Heliothis virescens (Fabricius)
# Details: 2-day old eggs (TBW-E), percent of test compound in solution
# Experimental: as §1
# Tobacco Budworm Heliothis virescens (Fabricius)
# Eggs: Paper towel patches of 2-day old eggs of the tobacco budworm were dipped in acetone solutions of the test compound and placed in petri dishes containing a portion of larval rearing medium. Treated eggs were maintained at 78° F. and mortality was recorded after all control eggs had hatched and the young larvae were feeding on the media. Test concentrations ranged from 0.1% downward. The LC-50 value is expressed below in Table II under the heading "TBW-E" in terms of percent of the test compound in the solution.
row,SMILES,LC50 TBW
1,CC(C)C(=Nc1ccc2ocnc2c1)OCc1cccc(Oc2ccccc2)c1 [Compound 19],> 0.1%
2,CC(C)C(=Nc1ccc(Cl)nc1Cl)OCc1cccc(Oc2ccccc2)c1 [Compound 2],0.075%
3,C=C(C)C(=Nc1ccc(Cl)nc1)OCc1ccc(F)c(Oc2ccccc2)c1 [Compound 49],0.1%
4,Cc1ccc(N=C(OCc2cccc(Oc3ccccc3)c2)C(C)C)cn1 [Compound 10],> 0.1%
5,CCCCc1nc2ccc(N=C(OCc3cccc(Oc4ccccc4)c3)C(C)C)cc2o1 [Compound 26],> 0.1%
6,CC(C)C(=Nc1ccc(Br)nc1)OCc1cccc(Oc2ccccc2)c1 [Compound 11],> 0.1%
7,CC(C)C(=Nc1ccc(Cl)nc1)OCc1ccc(F)c(Oc2ccc(F)cc2)c1 [Compound 31],0.45%
8,CC(C)C(=Nc1ccc2nc(C(C)C)sc2c1)OCc1cccc(Oc2ccccc2)c1 [Compound 21],> 0.1%
9,CC(C)C(=Nc1ccc(Cl)nc1)OCc1ccc(F)c(Oc2ccc(Cl)cc2)c1 [Compound 32],0.03%
10,CC(C)C(=Nc1ccc2nc(C(C)C)oc2c1)OCc1cccc(Oc2ccccc2)c1 [Compound 27],> 0.1%
11,CCOc1ccc(N=C(OCc2cccc(Oc3ccccc3)c2)C(C)C)cn1 [Compound 41],> 0.1%
12,Cc1nc2ccc(N=C(OCc3cccc(Oc4ccccc4)c3)C(C)C)cc2o1 [Compound 25],> 0.1%

# Test system: Trichoplusia ni
# Experiment: Cabbage looper larvae leaf-dip test
# Type: in vivo, Cabbage Looper Trichoplusia ni (Hubner)
# Details: second instar larvae, percent of test compound in solution, 3-5 days
# Experimental: as §1
# Cabbage Looper Trichoplusia ni (Hubner)
# The test compound was diluted in a 50--50 acetone-water solution Cotyledons of hyzini squash (Calabacita abobrinha), approximately 1×1.5 inches, were immersed in the test solutions for 2-3 seconds and placed on a wire screen to dry. The dried leaves were p1aced in petri dishes containing a moistened piece of filter paper and infested with 5 secondinstar cabbage looper larvae. The dishes were placed in a high humidity chamber. Mortality of the larvae was recorded 3-5 days later. Test concentrations ranged from 0.1% downward. The LC-50 value is expressed below in Table II under the heading "CL" in terms of percent of the test compound in solution.
row,SMILES,LC50 CL
1,CC(C)C(=Nc1ccc2ocnc2c1)OCc1cccc(Oc2ccccc2)c1 [Compound 19],0.04%
2,CC(C)C(=Nc1ccc(Cl)nc1Cl)OCc1cccc(Oc2ccccc2)c1 [Compound 2],0.0027%
3,C=C(C)C(=Nc1ccc(Cl)nc1)OCc1ccc(F)c(Oc2ccccc2)c1 [Compound 49],< 0.1%
4,Cc1ccc(N=C(OCc2cccc(Oc3ccccc3)c2)C(C)C)cn1 [Compound 10],> 0.1%
5,CCCCc1nc2ccc(N=C(OCc3cccc(Oc4ccccc4)c3)C(C)C)cc2o1 [Compound 26],0.004%
6,CC(C)C(=Nc1ccc(Br)nc1)OCc1cccc(Oc2ccccc2)c1 [Compound 11],0.01%
7,CC(C)C(=Nc1ccc(Cl)nc1)OCc1ccc(F)c(Oc2ccc(F)cc2)c1 [Compound 31],0.0016%
8,CC(C)C(=Nc1ccc2nc(C(C)C)sc2c1)OCc1cccc(Oc2ccccc2)c1 [Compound 21],0.05%
9,CC(C)C(=Nc1ccc(Cl)nc1)OCc1ccc(F)c(Oc2ccc(Cl)cc2)c1 [Compound 32],0.00075%
10,CC(C)C(=Nc1ccc2nc(C(C)C)oc2c1)OCc1cccc(Oc2ccccc2)c1 [Compound 27],0.0035%
11,Cc1nc2ccc(N=C(OCc3cccc(Oc4ccccc4)c3)C(C)C)cc2o1 [Compound 25],0.0075%

# Test system: Diabrotica undecimpunctata undecimpunctata
# Experiment: Western spotted cucumber beetle larvae soil test
# Type: in vivo
# Details: Diabrotica eggs/larvae; ppm of the test compound in the soil
# Experimental: as §1
# Western Spotted Cucumber Beetle Larvae Diabrotica undecimpunctata undecimpunctata (Mannherheim)
# Ten grams of moist potting soil was placed in a plastic cup. The test compound was dissolved in acetone. A 0.05 ml aliquot of the test sample, diluted to the desired concentration, was added to the soil. The cup was capped and the soil was mixed on a vortex mixer for approximately 15 seconds. An indentation was made on the surface of the soil and approximately 50 Diabrotica eggs were added. The eggs were covered with soil and maintained at room temperature (approximately 70° F. or 21° C.). Four days later a section of Romaine lettuce (Latuca sativa) leaf was placed in the treated cups. One week later the cups were examined for live larvae. Test concentrations ranged from 25 ppm downward. The LC-50 value is expressed below in Table II under the heading "Diabrotica" in terms of ppm of the test compound in the soil.
row,SMILES,LC50 Diabrotica
1,CC(C)C(=Nc1ccc2ocnc2c1)OCc1cccc(Oc2ccccc2)c1 [Compound 19],> 25 ppm
2,CC(C)C(=Nc1ccc(Cl)nc1Cl)OCc1cccc(Oc2ccccc2)c1 [Compound 2],> 25 ppm
3,C=C(C)C(=Nc1ccc(Cl)nc1)OCc1ccc(F)c(Oc2ccccc2)c1 [Compound 49],> 25 ppm
4,CC(C)C(=Nc1ccc(Cl)nc1)OCc1ccc(F)c(Oc2ccc(F)cc2)c1 [Compound 31],> 25 ppm
5,CC(C)C(=Nc1ccc2nc(C(C)C)sc2c1)OCc1cccc(Oc2ccccc2)c1 [Compound 21],> 25 ppm
6,CC(C)C(=Nc1ccc(Cl)nc1)OCc1ccc(F)c(Oc2ccc(Cl)cc2)c1 [Compound 32],> 25 ppm
7,CCOc1ccc(N=C(OCc2cccc(Oc3ccccc3)c2)C(C)C)cn1 [Compound 41],> 25 ppm
8,Cc1nc2ccc(N=C(OCc3cccc(Oc4ccccc4)c3)C(C)C)cc2o1 [Compound 25],> 25 ppm
